Some results are limits rather than exact numbers.

Chain of GST tagged IRAK-4 (Q9NWZ3 whole entry): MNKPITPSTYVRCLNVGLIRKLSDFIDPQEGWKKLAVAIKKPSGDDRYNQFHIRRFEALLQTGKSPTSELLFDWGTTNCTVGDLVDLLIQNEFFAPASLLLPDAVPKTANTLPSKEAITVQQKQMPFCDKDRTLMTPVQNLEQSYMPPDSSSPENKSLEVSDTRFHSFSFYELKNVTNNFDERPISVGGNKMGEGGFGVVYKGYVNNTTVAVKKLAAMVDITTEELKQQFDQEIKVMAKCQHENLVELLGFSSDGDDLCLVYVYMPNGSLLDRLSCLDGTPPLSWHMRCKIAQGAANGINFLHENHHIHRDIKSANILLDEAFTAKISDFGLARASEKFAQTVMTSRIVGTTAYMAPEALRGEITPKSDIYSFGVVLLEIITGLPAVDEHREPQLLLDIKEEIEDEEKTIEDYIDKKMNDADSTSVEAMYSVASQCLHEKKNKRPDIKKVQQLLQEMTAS

In the first assay the target is GST tagged IRAK-4 (Homo sapiens (Human), UniProt Q9NWZ3). Put plainly: IRAK-4 Kinase Assay (IMAP fluorescence polarization). In kind it is biochemical. The conditions noted are these: 100 μM ATP, 30 minutes at 25° C. The method, boiled down:
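Activity was read by IMAP fluorescence polarization, where phosphopeptide binding to M(III) nanoparticles raises FP. The 30-minute, 25° C reaction used 100 μM ATP, 100 nM RP7030 substrate and 0.5 nM GST-IRAK-4 in pH 7.2 Tris buffer with MgCl2, DTT and Tween 20.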
As to `Cc1ccc(-n2nc(-c3ccncc3)cc2NC(=O)c2cnn3cccnc23)cc1` [Example 125, N-(3-(pyridin-4-yl)-1-(p-tolyl)-1H-pyrazol-5-yl)pyrazolo[1,5-a]pyrimidine-3-carboxamide], the IC50 is < 0.1 µM.

On to `COc1ccc(-c2cc(NC(=O)c3cnn4cccnc34)n(-c3ccc(C)cc3)n2)cc1OC` [Example 133, N-(3-(3,4-dimethoxyphenyl)-1-(p-tolyl)-1H-pyrazol-5-yl)pyrazolo[1,5-a]pyrimidine-3-carboxamide], for which the IC50 is < 0.1 µM.

Turning to `Cc1ccc(-n2nc(-c3ccc(S(C)(=O)=O)cc3)cc2NC(=O)c2cnn3cccnc23)cc1` [Example 134, N-(3-(4-(methylsulfonyl)phenyl)-1-(p-tolyl)-1H-pyrazol-5-yl)pyrazolo[1,5-a]pyrimidine-3-carboxamide], the IC50 is < 0.1 µM.

For `Cc1ccc(-n2nc(C3=CCNCC3)cc2NC(=O)c2cnn3cccnc23)cc1` [Example 138, N-(3-(1,2,3,6-tetrahydropyridin-4-yl)-1-(p-tolyl)-1H-pyrazol-5-yl)pyrazolo[1,5-a]pyrimidine-3-carboxamide], the IC50 is < 0.1 µM.

Consider `Cc1ccc(-n2nc(C3=CCN(S(C)(=O)=O)CC3)cc2NC(=O)c2cnn3cccnc23)cc1` [Example 139, N-(3-(1-(methylsulfonyl)-1,2,3,6-tetrahydropyridin-4-yl)-1-(p-tolyl)-1H-pyrazol-5-yl)pyrazolo[1,5-a]pyrimidine-3-carboxamide], for which the IC50 is < 0.1 µM.

For the molecule `Cc1ccc(-n2nc(C3=CCN(C)CC3)cc2NC(=O)c2cnn3cccnc23)cc1` [Example 140, N-(3-(1-methyl-1,2,3,6-tetrahydropyridin-4-yl)-1-(p-tolyl)-1H-pyrazol-5-yl)pyrazolo[1,5-a]pyrimidine-3-carboxamide], the IC50 was < 0.1 µM.

On to `Cc1ccc(-n2nc(-c3ccc(CN4CCCC4)cc3)cc2NC(=O)c2cnn3cccnc23)cc1` [Example 143, N-(3-(4-(pyrrolidin-1-ylmethyl)phenyl)-1-(p-tolyl)-1H-pyrazol-5-yl)pyrazolo[1,5-a]pyrimidine-3-carboxamide], for which the IC50 is < 0.1 µM.

For the molecule `Cc1ccc(-n2nc(-c3ccc(CN4CCN(C)CC4)cc3)cc2NC(=O)c2cnn3cccnc23)cc1` [Example 144], the concentration for half-maximal inhibition (IC50) is < 0.1 µM.

For `Cc1ccc(-n2nc(-c3ccc(CN4CCOCC4)cc3)cc2NC(=O)c2cnn3cccnc23)cc1` [Example 145, N-(3-(4-(morpholinomethyl)phenyl)-1-(p-tolyl)-1H-pyrazol-5-yl)pyrazolo[1,5-a]pyrimidine-3-carboxamide], the IC50 was < 0.1 µM.

Turning to `O=C(Nc1cc(C2CCNCC2)nn1-c1ccc(C2CC2)cn1)c1cnn2cccnc12` [Example 146, N-(1-(5-cyclopropylpyridin-2-yl)-3-(piperidin-4-yl)-1H-pyrazol-5-yl)pyrazolo[1,5-a]pyrimidine-3-carboxamide], the IC50 is < 0.1 µM.

In the case of `CN1CCC(c2cc(NC(=O)c3cnn4cccnc34)n(-c3ccc(C4CC4)cn3)n2)CC1` [Example 147, N-(1-(5-cyclopropylpyridin-2-yl)-3-(1-methylpiperidin-4-yl)-1H-pyrazol-5-yl)pyrazolo[1,5-a]pyrimidine-3-carboxamide], the IC50 was < 0.1 µM.

On to `CS(=O)(=O)N1CCC(c2cc(NC(=O)c3cnn4cccnc34)n(-c3ccc(C4CC4)cn3)n2)CC1` [Example 149, N-(1-(5-cyclopropylpyridin-2-yl)-3-(1-(methylsulfonyl)piperidin-4-yl)-1H-pyrazol-5-yl)pyrazolo[1,5-a]pyrimidine-3-carboxamide], for which the IC50 is < 0.1 µM.

For the molecule `CNS(=O)(=O)c1ccc(-c2cc(NC(=O)c3cnn4cccnc34)n(-c3ccc(C4CC4)cn3)n2)cc1` [Example 151, N-(1-(5-cyclopropylpyridin-2-yl)-3-(4-(N-methylsulfamoyl)phenyl)-1H-pyrazol-5-yl)pyrazolo[1,5-a]pyrimidine-3-carboxamide], the half-maximal inhibitory concentration (IC50) is < 0.1 µM.

In the case of `Cc1ccc(-n2nc(C3CCNCC3)cc2NC(=O)c2cnn3cccnc23)nc1` [Example 152, N-(1-(5-methylpyridin-2-yl)-3-(piperidin-4-yl)-1H-pyrazol-5-yl)pyrazolo[1,5-a]pyrimidine-3-carboxamide], the IC50 was < 0.1 µM.

On to `Cc1ccc(-n2nc(C3CCN(S(C)(=O)=O)CC3)cc2NC(=O)c2cnn3cccnc23)nc1` [Example 153, N-(1-(5-methylpyridin-2-yl)-3-(1-(methylsulfonyl)piperidin-4-yl)-1H-pyrazol-5-yl)pyrazolo[1,5-a]pyrimidine-3-carboxamide], for which the IC50 is < 0.1 µM.

Turning to `[2H]C([2H])([2H])c1ccc(-n2nc(C3CCN(S(C)(=O)=O)CC3)cc2NC(=O)c2cnn3cccnc23)nc1` [Example 155, N-(1-(5-trideuteromethylpyridin-2-yl)-3-(1-(methylsulfonyl)piperidin-4-yl)-1H-pyrazol-5-yl)pyrazolo[1,5-a]pyrimidine-3-carboxamide], the IC50 was < 0.1 µM.

For the molecule `CC(C)(CN)c1ccc(-n2nc(C3CCN(S(C)(=O)=O)CC3)cc2NC(=O)c2cnn3cccnc23)nc1` [Example 158, N-(1-(5-(1-amino-2-methylpropan-2-yl)pyridin-2-yl)-3-(1-(methylsulfonyl)piperidin-4-yl)-1H-pyrazol-5-yl)pyrazolo[1,5-a]pyrimidine-3-carboxamide], the IC50 is < 0.1 µM.

For the molecule `CC(C)(N)c1ccc(-n2nc(C3CCN(S(C)(=O)=O)CC3)cc2NC(=O)c2cnn3cccnc23)nc1` [Example 159, N-(1-(5-(2-aminopropan-2-yl)pyridin-2-yl)-3-(1-(methylsulfonyl)piperidin-4-yl)-1H-pyrazol-5-yl)pyrazolo[1,5-a]pyrimidine-3-carboxamide], the IC50 is < 0.1 µM.

Turning to `C[C@@H](N)c1ccc(-n2nc(C3CCN(S(C)(=O)=O)CC3)cc2NC(=O)c2cnn3cccnc23)nc1` [Example 163, (R)—N-(1-(5-(1-aminoethyl)pyridin-2-yl)-3-(1-(methylsulfonyl)piperidin-4-yl)-1H-pyrazol-5-yl)pyrazolo[1,5-a]pyrimidine-3-carboxamide], the IC50 is < 0.1 µM.

Still in this assay, the particulars now being: 100 μM ATP, 30 minutes at 25° C.; μM.
For the molecule `COc1ccc(-c2cc(NC(=O)c3cnn4cccnc34)n(-c3ccc(C)cc3)n2)cn1` [Example 124, N-(3-(6-methoxypyridin-3-yl)-1-(p-tolyl)-1H-pyrazol-5-yl)pyrazolo[1,5-a]pyrimidine-3-carboxamide], the IC50 is < 1 µM.

With `O=C(Nc1cc(-c2ccncc2)nn1-c1ccc(F)cc1)c1cnn2cccnc12` [Example 126, N-(1-(4-fluorophenyl)-3-(pyridin-4-yl)-1H-pyrazol-5-yl)pyrazolo[1,5-a]pyrimidine-3-carboxamide], the IC50 was < 1 µM.

In the case of `COc1ccc(-n2nc(-c3ccncc3)cc2NC(=O)c2cnn3cccnc23)cc1` [Example 127, N-(1-(4-methoxyphenyl)-3-(pyridin-4-yl)-1H-pyrazol-5-yl)pyrazolo[1,5-a]pyrimidine-3-carboxamide], the IC50 was < 1 µM.

Take `Cc1ccc(-n2nc(-c3ccncc3)cc2NC(=O)c2cnn3cccnc23)cc1F` [Example 128, N-(1-(3-fluoro-4-methylphenyl)-3-(pyridin-4-yl)-1H-pyrazol-5-yl)pyrazolo[1,5-a]pyrimidine-3-carboxamide]: the IC50 is < 1 µM.

Consider `COc1cc(-c2cc(NC(=O)c3cnn4cccnc34)n(-c3ccc(C)cc3)n2)ccn1` [Example 129, N-(3-(2-methoxypyridin-4-yl)-1-(p-tolyl)-1H-pyrazol-5-yl)pyrazolo[1,5-a]pyrimidine-3-carboxamide], for which the IC50 was < 1 µM.

On to `Cc1ccc(-n2nc(C3CC3)cc2NC(=O)c2cnn3cccnc23)cc1` [Example 130, N-(3-cyclopropyl-1-(p-tolyl)-1H-pyrazol-5-yl)pyrazolo[1,5-a]pyrimidine-3-carboxamide], for which the IC50 is < 1 µM.

For the molecule `COc1ccc(-c2cc(NC(=O)c3cnn4cccnc34)n(-c3ccc(C)cc3)n2)cc1` [Example 131, N-(3-(4-methoxyphenyl)-1-(p-tolyl)-1H-pyrazol-5-yl)pyrazolo[1,5-a]pyrimidine-3-carboxamide], the IC50 is < 1 µM.

With `COc1ccc(-c2cc(NC(=O)c3cnn4cccnc34)n(-c3cccc(F)c3)n2)cc1` [Example 132, N-(1-(3-fluorophenyl)-3-(4-methoxyphenyl)-1H-pyrazol-5-yl)pyrazolo[1,5-a]pyrimidine-3-carboxamide], the half-inhibitory concentration (IC50) was < 1 µM.

Consider `Cc1ccc(-n2nc(-c3ccc(F)cc3)cc2NC(=O)c2cnn3cccnc23)cc1` [Example 135, N-(3-(4-fluorophenyl)-1-(p-tolyl)-1H-pyrazol-5-yl)pyrazolo[1,5-a]pyrimidine-3-carboxamide], for which the IC50 is > 1 µM.

Consider `Cc1ccc(-n2nc(-c3cncc(F)c3)cc2NC(=O)c2cnn3cccnc23)cc1` [Example 136, N-(3-(5-fluoropyridin-3-yl)-1-(p-tolyl)-1H-pyrazol-5-yl)pyrazolo[1,5-a]pyrimidine-3-carboxamide], for which the IC50 is > 1 µM.

With `Cc1ccc(-n2nc(-c3cncnc3)cc2NC(=O)c2cnn3cccnc23)cc1` [Example 137, N-(3-(pyrimidin-5-yl)-1-(p-tolyl)-1H-pyrazol-5-yl)pyrazolo[1,5-a]pyrimidine-3-carboxamide], the IC50 was > 1 µM.

For `Cc1ccc(-n2nc(CN3CCCC3)cc2NC(=O)c2cnn3cccnc23)cc1` [Example 142, N-(3-(pyrrolidin-1-ylmethyl)-1-(p-tolyl)-1,4-pyrazol-5-yl)pyrazolo[1,5-a]pyrimidine-3-carboxamide], the IC50 was > 1 µM.

For `O=C(Nc1cc(C2CCN(S(=O)(=O)C3CC3)CC2)nn1-c1ccc(C2CC2)cn1)c1cnn2cccnc12` [Example 150, N-(1-(5-cyclopropylpyridin-2-yl)-3-(1-(cyclopropylsulfonyl)piperidin-4-yl)-1H-pyrazol-5-yl)pyrazolo[1,5-a]pyrimidine-3-carboxamide], the IC50 is < 1 µM.

For `NC(=O)c1ccc(-n2nc(C3CCNCC3)cc2NC(=O)c2cnn3cccnc23)nc1` [Example 160, N-(1-(5-carbamoylpyridin-2-yl)-3-(piperidin-4-yl)-1H-pyrazol-5-yl)pyrazolo[1,5-a]pyrimidine-3-carboxamide], the IC50 was < 1 µM.

Source of the values: US9169260B2 (MERCK SHARP & DOHME CORP., priority 2011, dated 2015).
